Test results: article PMC5216056 (Nature Communications, 2017)
Where “and” joins values, the source holds several entries; their conditions need not be identical. Equal values may be shown once.

Legend:
Rat recombinant TRPV3 = biological target: T1, Rat recombinant TRPV3 (Rattus norvegicus, UniProt Q4QYD9); assay: cell-based; assay type: cell-based; conditions: for EC50: read-out: TRPV3 Potency EC50; for IC50: vs thymol 100μM, read-out: TRPV3 IC50 for antagonism or desensitization
T1 construct: expressed in transfected cells; host or cells: HEK293 (TRPV3-HEK-293, gift from HB Bradshaw, Indiana University)
T1 sequence (Q4QYD9 1-791): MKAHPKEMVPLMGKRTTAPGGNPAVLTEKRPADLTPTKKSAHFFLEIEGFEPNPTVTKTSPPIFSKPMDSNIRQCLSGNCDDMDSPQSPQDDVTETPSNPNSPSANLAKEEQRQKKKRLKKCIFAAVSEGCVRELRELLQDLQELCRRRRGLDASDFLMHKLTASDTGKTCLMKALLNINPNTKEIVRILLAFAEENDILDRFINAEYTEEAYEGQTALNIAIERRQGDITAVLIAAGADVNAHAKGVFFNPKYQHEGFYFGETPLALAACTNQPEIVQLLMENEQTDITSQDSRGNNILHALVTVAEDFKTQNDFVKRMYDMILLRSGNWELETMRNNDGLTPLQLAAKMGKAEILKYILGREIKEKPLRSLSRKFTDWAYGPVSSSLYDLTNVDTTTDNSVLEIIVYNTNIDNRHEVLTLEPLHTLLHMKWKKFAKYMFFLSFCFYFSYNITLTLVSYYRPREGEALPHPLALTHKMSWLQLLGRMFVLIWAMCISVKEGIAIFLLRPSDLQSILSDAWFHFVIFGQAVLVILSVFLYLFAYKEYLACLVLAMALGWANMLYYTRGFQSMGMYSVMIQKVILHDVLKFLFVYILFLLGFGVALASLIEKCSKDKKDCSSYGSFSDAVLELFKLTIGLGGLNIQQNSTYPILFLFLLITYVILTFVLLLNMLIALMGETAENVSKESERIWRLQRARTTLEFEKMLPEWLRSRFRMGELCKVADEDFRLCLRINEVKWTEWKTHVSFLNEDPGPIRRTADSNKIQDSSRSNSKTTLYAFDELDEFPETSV

Rat recombinant TRPA1 = biological target: T2, Rat recombinant TRPA1 (Rattus norvegicus, UniProt Q6RI86); assay: cell-based; assay type: cell-based; conditions: for EC50: read-out: TRPA1 Potency EC50; for IC50: vs AITC 100μM, 5 min pre-incubation, read-out: TRPA1 IC50 for antagonism or desensitization
T2 construct: expressed in transfected cells
T2 sequence (Q6RI86 whole entry): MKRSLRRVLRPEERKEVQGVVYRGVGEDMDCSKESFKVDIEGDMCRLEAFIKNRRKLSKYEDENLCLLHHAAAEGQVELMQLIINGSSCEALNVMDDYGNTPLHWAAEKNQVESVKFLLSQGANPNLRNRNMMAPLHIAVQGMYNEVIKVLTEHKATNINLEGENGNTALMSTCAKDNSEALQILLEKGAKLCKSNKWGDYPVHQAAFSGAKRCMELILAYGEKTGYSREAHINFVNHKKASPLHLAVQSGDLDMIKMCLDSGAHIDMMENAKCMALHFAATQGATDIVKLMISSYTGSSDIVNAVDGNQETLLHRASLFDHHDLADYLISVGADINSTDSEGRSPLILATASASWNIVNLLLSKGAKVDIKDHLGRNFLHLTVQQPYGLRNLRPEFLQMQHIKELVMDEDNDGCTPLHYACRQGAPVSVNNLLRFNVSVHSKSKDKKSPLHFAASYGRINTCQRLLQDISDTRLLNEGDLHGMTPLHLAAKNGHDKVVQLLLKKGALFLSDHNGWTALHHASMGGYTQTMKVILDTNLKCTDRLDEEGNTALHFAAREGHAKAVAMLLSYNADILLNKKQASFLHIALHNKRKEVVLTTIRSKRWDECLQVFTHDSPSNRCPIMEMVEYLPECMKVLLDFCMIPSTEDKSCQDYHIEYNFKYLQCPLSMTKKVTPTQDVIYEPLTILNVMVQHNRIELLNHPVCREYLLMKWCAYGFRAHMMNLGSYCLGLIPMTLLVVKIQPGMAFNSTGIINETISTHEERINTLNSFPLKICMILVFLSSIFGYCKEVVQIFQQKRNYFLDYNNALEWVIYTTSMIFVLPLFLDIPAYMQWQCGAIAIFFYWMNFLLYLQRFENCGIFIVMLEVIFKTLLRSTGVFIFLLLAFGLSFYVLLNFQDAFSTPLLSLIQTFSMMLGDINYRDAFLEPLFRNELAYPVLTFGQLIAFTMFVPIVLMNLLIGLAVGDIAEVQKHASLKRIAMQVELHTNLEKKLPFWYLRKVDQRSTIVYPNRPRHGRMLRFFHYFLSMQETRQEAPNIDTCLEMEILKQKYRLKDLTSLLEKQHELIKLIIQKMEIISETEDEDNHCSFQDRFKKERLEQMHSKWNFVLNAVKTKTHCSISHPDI

AR (h) = assay: CEREP panel; assay type: binding, human; conditions: 10 µM
BZD (central) = assay type: binding; conditions: 10 µM
alpha 1A (h) = biological target: T3, alpha 1A (h) (Homo sapiens, UniProt P35348); assay: CEREP panel; assay type: binding; conditions: for % inhibition alpha 1A (h): 10 µM
T3 construct: CEREP
T3 sequence (P35348 1-466): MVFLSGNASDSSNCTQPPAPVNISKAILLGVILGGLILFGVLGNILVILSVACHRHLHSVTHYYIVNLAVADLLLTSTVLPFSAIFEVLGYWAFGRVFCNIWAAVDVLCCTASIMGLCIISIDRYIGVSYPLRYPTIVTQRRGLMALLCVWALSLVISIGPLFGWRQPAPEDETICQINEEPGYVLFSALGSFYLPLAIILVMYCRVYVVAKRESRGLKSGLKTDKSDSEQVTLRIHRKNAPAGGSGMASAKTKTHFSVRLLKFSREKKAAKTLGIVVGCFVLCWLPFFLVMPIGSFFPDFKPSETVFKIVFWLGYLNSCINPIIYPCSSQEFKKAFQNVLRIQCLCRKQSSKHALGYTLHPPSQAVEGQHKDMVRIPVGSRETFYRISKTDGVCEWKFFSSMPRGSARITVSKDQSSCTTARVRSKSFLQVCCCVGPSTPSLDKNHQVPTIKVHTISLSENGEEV

beta 1 (h) = biological target: T4, beta 1 (h) (Homo sapiens, UniProt P08588); assay: biochemical; assay type: binding; conditions: for % inhibition beta 1 (h): 10 µM
T4 construct: CEREP
T4 sequence (P08588 whole entry): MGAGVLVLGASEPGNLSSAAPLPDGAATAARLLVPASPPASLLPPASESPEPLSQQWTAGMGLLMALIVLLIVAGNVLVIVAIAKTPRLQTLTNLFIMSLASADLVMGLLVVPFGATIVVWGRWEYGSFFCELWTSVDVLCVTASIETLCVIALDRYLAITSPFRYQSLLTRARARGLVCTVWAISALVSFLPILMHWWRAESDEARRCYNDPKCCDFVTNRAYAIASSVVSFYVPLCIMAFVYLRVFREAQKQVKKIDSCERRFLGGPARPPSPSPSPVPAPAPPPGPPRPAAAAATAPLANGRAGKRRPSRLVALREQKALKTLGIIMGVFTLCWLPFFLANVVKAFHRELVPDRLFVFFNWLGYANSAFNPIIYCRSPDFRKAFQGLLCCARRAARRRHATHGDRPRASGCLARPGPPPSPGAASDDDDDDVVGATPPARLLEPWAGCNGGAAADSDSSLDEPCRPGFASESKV

Rat recombinant TRPV2 = biological target: T5, Rat recombinant TRPV2 (Rattus norvegicus, UniProt Q9WUD2); assay: cell-based; assay type: cell-based; conditions: for IC50: vs LPC 3μM, read-out: TRPV2 IC50 for antagonism or desensitization
T5 construct: expressed in transfected cells; host or cells: HEK293 (plasmid a gift from HB Bradshaw, Indiana University)
T5 sequence (Q9WUD2 1-761): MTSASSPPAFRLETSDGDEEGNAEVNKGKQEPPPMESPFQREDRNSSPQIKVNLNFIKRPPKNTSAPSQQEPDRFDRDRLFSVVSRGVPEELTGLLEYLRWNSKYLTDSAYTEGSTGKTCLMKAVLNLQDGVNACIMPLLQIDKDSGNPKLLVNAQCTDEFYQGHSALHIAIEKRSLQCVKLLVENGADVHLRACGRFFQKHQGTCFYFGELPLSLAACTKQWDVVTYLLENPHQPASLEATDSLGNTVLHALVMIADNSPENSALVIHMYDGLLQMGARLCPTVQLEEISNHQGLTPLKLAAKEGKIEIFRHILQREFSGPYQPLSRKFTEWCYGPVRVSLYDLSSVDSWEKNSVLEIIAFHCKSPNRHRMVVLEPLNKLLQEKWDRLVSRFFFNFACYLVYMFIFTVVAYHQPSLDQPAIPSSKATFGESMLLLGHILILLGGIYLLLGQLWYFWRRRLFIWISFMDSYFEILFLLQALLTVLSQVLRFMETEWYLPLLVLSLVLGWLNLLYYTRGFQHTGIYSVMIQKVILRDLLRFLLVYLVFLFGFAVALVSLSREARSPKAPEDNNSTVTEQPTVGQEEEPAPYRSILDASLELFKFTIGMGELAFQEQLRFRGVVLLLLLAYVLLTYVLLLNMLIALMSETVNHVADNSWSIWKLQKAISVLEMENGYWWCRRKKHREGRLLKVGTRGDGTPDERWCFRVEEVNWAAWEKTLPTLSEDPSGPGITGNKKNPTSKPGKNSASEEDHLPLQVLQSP

mu (MOP) (h) = biological target: T6, mu (MOP) (h) (Homo sapiens, UniProt P35372); assay: CEREP panel; assay type: binding; conditions: for % inhibition mu (MOP) (h): 10 µM
T6 construct: CEREP (contract assay)
T6 sequence (P35372 whole entry): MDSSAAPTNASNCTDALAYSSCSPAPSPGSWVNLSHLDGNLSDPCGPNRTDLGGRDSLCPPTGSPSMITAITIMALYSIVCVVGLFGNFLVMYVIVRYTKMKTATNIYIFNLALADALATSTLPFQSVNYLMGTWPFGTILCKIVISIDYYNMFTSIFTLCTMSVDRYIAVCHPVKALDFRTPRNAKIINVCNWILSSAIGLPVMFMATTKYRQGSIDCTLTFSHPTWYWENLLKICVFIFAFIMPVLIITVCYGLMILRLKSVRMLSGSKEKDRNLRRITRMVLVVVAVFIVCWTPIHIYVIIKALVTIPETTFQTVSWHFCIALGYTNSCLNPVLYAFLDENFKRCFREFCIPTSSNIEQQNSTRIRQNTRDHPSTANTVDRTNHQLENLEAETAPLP

hCB1R = biological target: T7, hCB1R (Homo sapiens, UniProt P21554); assay: cell-based
T7 construct: host or cells: CHO
T7 sequence (P21554 whole entry): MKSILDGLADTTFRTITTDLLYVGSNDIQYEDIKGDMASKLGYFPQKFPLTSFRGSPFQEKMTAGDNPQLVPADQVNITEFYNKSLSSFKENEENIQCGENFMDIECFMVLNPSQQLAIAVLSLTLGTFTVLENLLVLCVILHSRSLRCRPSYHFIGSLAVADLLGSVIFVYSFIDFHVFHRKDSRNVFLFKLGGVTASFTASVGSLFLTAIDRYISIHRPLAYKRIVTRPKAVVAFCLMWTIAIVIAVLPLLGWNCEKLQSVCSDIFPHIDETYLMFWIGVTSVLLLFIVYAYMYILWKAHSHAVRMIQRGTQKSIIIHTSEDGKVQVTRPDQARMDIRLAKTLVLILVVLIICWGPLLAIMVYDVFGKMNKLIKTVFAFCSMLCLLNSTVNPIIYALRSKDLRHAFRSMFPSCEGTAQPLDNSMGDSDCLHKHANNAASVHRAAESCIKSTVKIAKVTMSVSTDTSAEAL

hCB2R = hCB2R (Homo sapiens, UniProt P34972); assay: biochemical; assay type: binding; conditions: for pKi ± SEM hCB2R: CHO membranes, Leiden, HU210 and SR144528 from Roche
Chain of hCB2R (P34972 whole entry): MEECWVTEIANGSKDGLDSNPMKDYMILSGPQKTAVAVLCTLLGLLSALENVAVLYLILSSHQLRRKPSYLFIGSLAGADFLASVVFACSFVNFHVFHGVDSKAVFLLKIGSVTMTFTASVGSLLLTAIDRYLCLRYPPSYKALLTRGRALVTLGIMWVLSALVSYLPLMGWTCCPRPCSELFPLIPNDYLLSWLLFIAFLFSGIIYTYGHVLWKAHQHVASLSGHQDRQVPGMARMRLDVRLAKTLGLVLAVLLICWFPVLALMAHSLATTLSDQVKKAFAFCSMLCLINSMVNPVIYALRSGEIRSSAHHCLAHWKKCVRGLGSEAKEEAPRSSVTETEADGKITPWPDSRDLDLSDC

[1] = 1 μM
kappa (KOP) = biological target: T8, kappa (KOP) (Rattus norvegicus, UniProt P34975); assay: CEREP panel; assay type: binding; conditions: 10 µM
T8 construct: CEREP (contract assay)
T8 sequence (P34975 whole entry): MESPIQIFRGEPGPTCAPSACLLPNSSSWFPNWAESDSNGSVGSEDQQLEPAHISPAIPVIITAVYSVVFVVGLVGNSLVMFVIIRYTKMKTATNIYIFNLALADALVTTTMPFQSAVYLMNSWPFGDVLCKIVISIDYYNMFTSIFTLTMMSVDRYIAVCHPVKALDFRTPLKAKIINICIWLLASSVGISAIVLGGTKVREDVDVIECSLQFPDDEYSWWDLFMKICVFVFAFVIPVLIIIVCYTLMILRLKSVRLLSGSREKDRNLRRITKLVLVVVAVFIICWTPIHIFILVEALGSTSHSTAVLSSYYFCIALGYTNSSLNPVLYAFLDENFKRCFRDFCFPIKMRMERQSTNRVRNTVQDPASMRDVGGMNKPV

Row | Molecule | TRPV3 Efficacy (% ionomycin 4μM) (Rat recombinant TRPV3) [%] | TRPA1 Efficacy (%AITC 100μM) (Rat recombinant TRPA1) | % inhibition AR (h) (AR (h)) [%] | % inhibition BZD (central) (BZD (central)) [%] | % inhibition alpha 1A (h) (alpha 1A (h)) [%] | % inhibition beta 1 (h) (beta 1 (h)) [%] | TRPV2 Efficacy (% ionomycin 4μM) (Rat recombinant TRPV2) [%] | % inhibition mu (MOP) (h) (mu (MOP) (h)) [%] | pEC50 ± SEM cAMP hCB1R (hCB1R) | pKi ± SEM hCB2R (hCB2R) | EC50 (Rat recombinant TRPV3) [nM] | IC50 (Rat recombinant TRPV3) [µM] | EC50 (Rat recombinant TRPA1) [µM] | IC50 (Rat recombinant TRPA1) [µM] | IC50 (Rat recombinant TRPV2) [µM] | also measured
1 | SR144528 | < 10 | 43.8% | -12 | -3 | -1 | 41 | < 10 | 11 |  |  |  |  |  |  |  | 
2 | CN1CCCCC1Cn1cc(C(=O)c2cc([N+](=O)[O-])ccc2I)c2ccccc21 (racemic) [(rac)-AM1241] |  |  |  |  |  |  |  |  | < 5 | 8.39 ± 0.10 |  |  |  |  |  | CB2R Selectivity (binding, human) (hCB2R): 32
3 | CCCCCCC(C)(C)c1cc(OC)c(C2=C[C@H]3CC[C@]2(CO)C3(C)C)c(OC)c1 [HU910] | 31.3 | 33.1% |  | 0 | 1 | -4 | < 10 | 23 | < 5 | 7.22 ± 0.31 | 120 ± 50 | 12.9 | 53.1 | > 100 | > 100 | CL hepatocytes human [1]: 9.2 µL/min/mio cells; Emax ± SEM cAMP hCB1R (hCB1R): 28 ± 8
4 | Cc1c(C(=O)NN2CCCCC2)nn(-c2ccc(Cl)cc2Cl)c1-c1ccc(I)cc1 [AM251] | 25.9 | 44.4% |  |  | 6 | 25 | < 10 | 93 |  |  |  |  |  |  |  | % inhibition kappa (KOP) (kappa (KOP)): 94%
5 | CCCCCCC(C)(C)c1cc(OC)c([C@@H]2C=C(CO)[C@@H]3C[C@H]2C3(C)C)c(OC)c1 [HU308] | < 10 | 43.1% |  | -26 |  |  | < 10 |  |  |  |  | > 100 | 18.5 | > 100 | > 100 | EC50 (hCB1R; pEC50 ± SEM cAMP hCB1R): > 10 µM; Emax (hCB1R; read-out: Emax ± SEM cAMP hCB1R): 18 ± 4%; inhibition at 10 µM (alpha 1A (h); read-out: % inhibition alpha 1A (h)): 2%; inhibition at 10 µM (beta 1 (h); read-out: % inhibition beta 1 (h)): -11%; inhibition at 10 µM (mu (MOP) (h); read-out: % inhibition mu (MOP) (h)): 7%
6 | Cc1c(C(=O)NN2CCCCC2)nn(-c2ccc(Cl)cc2Cl)c1-c1ccc(Cl)cc1 [SR141716A] | 38.9 | 67.3% and 67 ± 1% | 4 |  |  |  | < 10 |  |  |  | 850 | 3.4 ± 0.4 | 1.9 | 12.5 | > 100 | 
